Test results published in US20230233569A1 (Revolution Medicines, Inc., priority 2020, published 2023).
Read-outs that look alike come from different tables or passages of the source.

What was measured:
[1] = tested on: Capan-1 (K-Ras G12V); experiment: CellTiter-Glo cell viability assay, 5-day treatment; type: cell-based; conditions: Homo sapiens, CAPAN-1, 120 h, 5-day treatment; read-out: Capan-1 Cell Viability assay data (K-Ras G12V, IC50)
Procedure, shortened: (§1)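 Compounds were dispensed directly onto seeded cells and incubated for 5 days, then plates were equilibrated to room temperature for about 30 minutes before luminescence reading. Signals were expressed as percent of the mean DMSO control and fitted with a four-parameter logistic curve.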

[2] = tested on: NCI-H358 (K-Ras G12C); experiment: as above; type: cell-based; conditions: Homo sapiens, NCI-H358, 120 h, 5-day treatment; read-out: H358 Cell Viability assay data (K-Ras G12C, IC50)
Procedure, shortened: as §1

[3] = molecular target: KRAS G12S (Homo sapiens, UniProt P01116+P62937, G12S); experiment: Disruption of BRAF RBD interaction with Ras (FRET / MOA assay, with Cyclophilin A); type: biochemical
Procedure, shortened: (§2)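 First, compounds at a ten-point threefold dilution series (highest final concentration 30 μM) were incubated with nucleotide-loaded K-Ras, Cyclophilin A and BRAF RBD for 3 h at 25 °C. Next, detection antibodies were added for 1.5 h. Finally, IC50 was calculated from TR-FRET ratio decreases against DMSO controls.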

[4] = molecular target: KRAS G13C (Homo sapiens, UniProt P01116+P62937, G13C); experiment: as above; type: biochemical
Procedure, shortened: as §2

[5] = molecular target: KRAS G12D (Homo sapiens, UniProt P01116+P62937, G12D); experiment: as above; type: biochemical
Procedure, shortened: as §2

[6] = molecular target: KRAS G12C (Homo sapiens, UniProt P01116+P62937, G12C); experiment: as above; type: biochemical
Procedure, shortened: as §2

[7] = molecular target: KRAS WT (Homo sapiens, UniProt P01116+P62937); experiment: as above; type: biochemical
Procedure, shortened: as §2

[8] = molecular target: KRAS G12V (Homo sapiens, UniProt P01116+P62937, G12V); experiment: as above; type: biochemical
Procedure, shortened: as §2

[9] = molecular target: NRAS G12C (Homo sapiens, UniProt P01111+P62937, G12C); experiment: as above; type: biochemical
[10] = molecular target: KRAS G13D (Homo sapiens, UniProt P01116+P62937, G13D); experiment: as above; type: biochemical
Procedure, shortened: as §2

[11] = molecular target: NRAS Q61R (Homo sapiens, UniProt P01111+P62937, Q61R); experiment: as above; type: biochemical; conditions: NRAS Q61R; read-out: NRAS Q61R FRET data IC50
Procedure, shortened: (§3)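 TR-FRET in 25 mM HEPES pH 7.3, 100 mM NaCl, 5 mM MgCl2, 0.1% BSA: 25 μM Cyclophilin A, 12.5 nM His6-Ras-GMPPNP, 50 nM GST-BRAF RBD with compound (10-point 3-fold series from 30 μM), 3 h at 25° C. Anti-His Eu/anti-GST APC added, 1.5 h more; IC50 from decreased FRET ratio versus DMSO.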

[12] = molecular target: NRAS Q61K (Homo sapiens, UniProt P01111+P62937, Q61K); experiment: as above; type: biochemical; conditions: NRAS Q61K; read-out: NRAS Q61K FRET data IC50
Procedure, shortened: as §3

[13] = molecular target: KRAS Q61H (Homo sapiens, UniProt P01116+P62937, Q61H); experiment: as above; type: biochemical; conditions: KRAS Q61H; read-out: KRAS Q61H FRET data IC50
Procedure, shortened: as §3

[14] = molecular target: NRAS WT (Homo sapiens, UniProt P01111+P62937); experiment: as above; type: biochemical; conditions: NRAS WT; read-out: NRAS WT FRET data IC50
Procedure, shortened: as §3

[15] = read-out: KRAS G12S FRET data, IC50
[16] = read-out: KRAS G13C FRET data, IC50
[17] = read-out: KRAS G12D FRET data, IC50
[18] = read-out: KRAS G12C FRET data, IC50
[19] = KRAS WT, read-out: KRAS WT FRET data IC50
[20] = KRAS G12V, read-out: KRAS G12V FRET data IC50
[21] = NRAS G12C, read-out: NRAS G12C FRET data IC50
[22] = KRAS G13D, read-out: KRAS G13D FRET data IC50

Chain of KRAS G12D (P01116 1-169 isoform P01116-2 G12D limits assumed): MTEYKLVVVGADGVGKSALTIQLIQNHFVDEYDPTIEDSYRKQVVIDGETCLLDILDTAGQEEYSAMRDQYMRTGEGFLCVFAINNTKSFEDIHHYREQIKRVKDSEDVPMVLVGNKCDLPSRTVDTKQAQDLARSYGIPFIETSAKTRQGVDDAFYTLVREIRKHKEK
Chain of KRAS G12D (P62937 whole entry): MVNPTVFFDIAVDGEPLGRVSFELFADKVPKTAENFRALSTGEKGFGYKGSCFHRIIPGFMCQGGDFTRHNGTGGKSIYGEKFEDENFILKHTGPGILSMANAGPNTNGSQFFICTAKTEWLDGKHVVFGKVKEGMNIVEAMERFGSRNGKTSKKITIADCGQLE
Chain of NRAS G12C (P01111 whole entry G12C): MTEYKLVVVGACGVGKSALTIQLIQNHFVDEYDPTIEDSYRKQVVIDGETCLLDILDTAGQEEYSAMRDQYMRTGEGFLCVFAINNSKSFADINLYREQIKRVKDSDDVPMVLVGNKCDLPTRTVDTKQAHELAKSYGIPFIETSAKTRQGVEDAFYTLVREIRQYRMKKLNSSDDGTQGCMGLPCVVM
Chain of NRAS G12C (P62937 whole entry): as the sequence (P62937 whole entry) above
Chain of KRAS Q61H (P01116 1-169 isoform P01116-2 Q61H limits assumed): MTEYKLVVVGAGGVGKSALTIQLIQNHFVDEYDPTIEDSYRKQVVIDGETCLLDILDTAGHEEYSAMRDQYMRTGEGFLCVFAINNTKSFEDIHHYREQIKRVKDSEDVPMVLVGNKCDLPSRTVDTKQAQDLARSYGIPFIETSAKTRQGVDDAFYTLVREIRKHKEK
Chain of KRAS Q61H (P62937 whole entry): as the sequence (P62937 whole entry) above
Chain of KRAS G13C (P01116 1-169 isoform P01116-2 G13C): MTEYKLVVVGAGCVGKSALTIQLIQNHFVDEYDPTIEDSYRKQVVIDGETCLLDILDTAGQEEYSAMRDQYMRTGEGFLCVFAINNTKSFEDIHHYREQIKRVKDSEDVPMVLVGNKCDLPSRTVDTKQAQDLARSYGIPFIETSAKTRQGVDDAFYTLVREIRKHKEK
Chain of KRAS G13C (P62937 whole entry): as the sequence (P62937 whole entry) above
Chain of KRAS G12S (P01116 1-169 isoform P01116-2 G12S limits assumed): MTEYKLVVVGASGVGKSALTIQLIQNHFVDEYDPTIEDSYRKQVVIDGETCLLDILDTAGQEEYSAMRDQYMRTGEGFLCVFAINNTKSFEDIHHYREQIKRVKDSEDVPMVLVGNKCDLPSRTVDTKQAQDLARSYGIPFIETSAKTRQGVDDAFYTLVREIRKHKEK
Chain of KRAS G12S (P62937 whole entry): as the sequence (P62937 whole entry) above
Chain of NRAS Q61R (P01111 whole entry Q61R): as the sequence (P01111 whole entry G12C) above, with C12G, Q61R counted along it
Chain of NRAS Q61R (P62937 whole entry): as the sequence (P62937 whole entry) above
Chain of KRAS G12C (P01116 1-169 isoform P01116-2 G12C): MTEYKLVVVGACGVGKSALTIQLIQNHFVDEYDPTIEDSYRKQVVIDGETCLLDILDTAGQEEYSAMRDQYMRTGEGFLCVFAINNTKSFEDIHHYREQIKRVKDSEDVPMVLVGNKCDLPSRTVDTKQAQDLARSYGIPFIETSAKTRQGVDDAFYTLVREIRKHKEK
Chain of KRAS G12C (P62937 whole entry): as the sequence (P62937 whole entry) above
Chain of KRAS WT (P01116 1-169 isoform P01116-2 limits assumed): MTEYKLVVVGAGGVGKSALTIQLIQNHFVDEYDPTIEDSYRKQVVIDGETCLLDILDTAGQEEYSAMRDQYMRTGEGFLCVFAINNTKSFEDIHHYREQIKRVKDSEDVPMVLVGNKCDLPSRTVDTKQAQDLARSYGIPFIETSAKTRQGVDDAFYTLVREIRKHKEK
Chain of KRAS WT (P62937 whole entry): as the sequence (P62937 whole entry) above
Chain of KRAS G12V (P01116 1-169 isoform P01116-2 G12V limits assumed): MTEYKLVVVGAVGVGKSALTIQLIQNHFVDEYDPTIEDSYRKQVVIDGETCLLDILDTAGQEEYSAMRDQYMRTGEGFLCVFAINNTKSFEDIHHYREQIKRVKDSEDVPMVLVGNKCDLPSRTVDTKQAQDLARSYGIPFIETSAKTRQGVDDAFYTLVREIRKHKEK
Chain of KRAS G12V (P62937 whole entry): as the sequence (P62937 whole entry) above
Chain of KRAS G13D (P01116 1-169 isoform P01116-2 G13D limits assumed): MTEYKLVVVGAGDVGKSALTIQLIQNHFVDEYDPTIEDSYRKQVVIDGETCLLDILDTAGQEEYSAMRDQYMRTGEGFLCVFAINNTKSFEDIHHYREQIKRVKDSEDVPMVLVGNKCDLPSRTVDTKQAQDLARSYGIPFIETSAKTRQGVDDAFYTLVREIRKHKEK
Chain of KRAS G13D (P62937 whole entry): as the sequence (P62937 whole entry) above
Chain of NRAS WT (P01111 whole entry): as the sequence (P01111 whole entry G12C) above, with C12G counted along it
Chain of NRAS WT (P62937 whole entry): as the sequence (P62937 whole entry) above
Chain of NRAS Q61K (P01111 whole entry Q61K): as the sequence (P01111 whole entry G12C) above, with C12G, Q61K counted along it
Chain of NRAS Q61K (P62937 whole entry): as the sequence (P62937 whole entry) above

With `CCn1c(-c2cccnc2[C@H](C)OC)c2c3cc(ccc31)-c1csc(n1)C[C@H](NC(=O)[C@H](C(C)C)N(C)C(=O)N1CCN(C(=O)C3(N(C)C)CC3)CC1)C(=O)N1CCC[C@H](N1)C(=O)OCC(C)(C)C2` (atropisomer, axis not shown) [Example A443] the IC50 [1] was 10 to 100 nM, the IC50 [2] was less than 10 nM and the IC50 [3, 15] was 100 to 1000 nM. For the same compound, the IC50 [4, 16] was 100 to 1000 nM, the IC50 [5, 17] was 100 to 1000 nM and the IC50 [6, 18] was 10 to 100 nM. It also gave an IC50 [7, 19] of 10 to 100 nM, an IC50 [8, 20] of 100 to 1000 nM and an IC50 [9, 21] of 10 to 100 nM. The IC50 [10, 22] was 100 to 1000 nM, the IC50 [11] was 100 to 1000 nM and the IC50 [12] was 10 to 100 nM. The IC50 [13] was 10 to 100 nM and the IC50 [14] was 10 to 100 nM.
Compound `CCn1c(-c2cccnc2[C@H](C)OC)c2c3cc(ccc31)-c1csc(n1)C[C@H](NC(=O)[C@H](C(C)C)N(C)C(=O)N1CC[C@@H](O)C1)C(=O)N1CCC[C@H](N1)C(=O)OCC(C)(C)C2` (atropisomer, axis not shown) [Example A376] has an IC50 [1] of 10 to 100 nM, an IC50 [2] of 10 to 100 nM and an IC50 [3, 15] of 100 to 1000 nM. For the same compound, the IC50 [4, 16] was 100 to 1000 nM, the IC50 [5, 17] was 100 to 1000 nM and the IC50 [6, 18] was 10 to 100 nM. For the same compound, the IC50 [7, 19] was 100 to 1000 nM, the IC50 [8, 20] was 100 to 1000 nM and the IC50 [9, 21] was 10 to 100 nM. For the same compound, the IC50 [10, 22] was 100 to 1000 nM, the IC50 [11] was 100 to 1000 nM and the IC50 [12] was 10 to 100 nM. For the same compound, the IC50 [13] was 10 to 100 nM and the IC50 [14] was 100 to 1000 nM.
`CCn1c(-c2cccnc2[C@H](C)OC)c2c3cc(ccc31)-c1csc(n1)C[C@H](NC(=O)[C@H](C(C)C)N(C)C(=O)N1C[C@H]3CN(C)C[C@H]31)C(=O)N1CCC[C@H](N1)C(=O)OCC(C)(C)C2` [Example A497] showed an IC50 [1] of 100 to 1000 nM, an IC50 [2] of 100 to 1000 nM and an IC50 [3, 15] of 1000 to 10000 nM. It also gave an IC50 [4, 16] of 100 to 1000 nM, an IC50 [5, 17] of 1000 to 10000 nM and an IC50 [6, 18] of 100 to 1000 nM. For the same compound, the IC50 [7, 19] was 1000 to 10000 nM, the IC50 [8, 20] was 1000 to 10000 nM and the IC50 [9, 21] was 100 to 1000 nM. The IC50 [10, 22] was 1000 to 10000 nM, the IC50 [11] was 1000 to 10000 nM and the IC50 [12] was 100 to 1000 nM. It also gave an IC50 [13] of 100 to 1000 nM and an IC50 [14] of 100 to 1000 nM.
`CCn1c(-c2cccnc2[C@H](C)OC)c2c3cc(ccc31)-c1csc(n1)C[C@H](NC(=O)[C@H](C(C)C)N(C)C(=O)N1CCC[C@@H](CN(C)C)C1)C(=O)N1CCC[C@H](N1)C(=O)OCC(C)(C)C2` [Example A574] was tested, and the IC50 [1] was 10 to 100 nM, the IC50 [2] was 10 to 100 nM and the IC50 [3, 15] was 100 to 1000 nM. For the same compound, the IC50 [4, 16] was 100 to 1000 nM, the IC50 [5, 17] was 100 to 1000 nM and the IC50 [6, 18] was 10 to 100 nM. For the same compound, the IC50 [7, 19] was 10 to 100 nM, the IC50 [8, 20] was 100 to 1000 nM and the IC50 [9, 21] was 10 to 100 nM. It also gave an IC50 [10, 22] of 100 to 1000 nM, an IC50 [11] of 100 to 1000 nM and an IC50 [12] of 10 to 100 nM. It also gave an IC50 [13] of 10 to 100 nM and an IC50 [14] of 10 to 100 nM.
Compound `CCn1c(-c2cccnc2[C@H](C)OC)c2c3cc(ccc31)-c1csc(n1)C[C@H](NC(=O)N1CCCC1)C(=O)N1CCC[C@H](N1)C(=O)OCC(C)(C)C2` [Example A267] has an IC50 [1] of 100 to 1000 nM, an IC50 [2] of 100 to 1000 nM and an IC50 ([3]; KRAS G12S FRET data, IC50) of 100 to 1000 nM. For the same compound, the IC50 ([4]; KRAS G13C FRET data, IC50) was 100 to 1000 nM, the IC50 ([5]; KRAS G12D FRET data, IC50) was 100 to 1000 nM and the IC50 ([6]; KRAS G12C FRET data, IC50) was 100 to 1000 nM. It also gave an IC50 ([7]; KRAS WT FRET data IC50, KRAS WT) of 100 to 1000 nM, an IC50 ([8]; KRAS G12V FRET data IC50, KRAS G12V) of 100 to 1000 nM and an IC50 ([9]; NRAS G12C FRET data IC50, NRAS G12C) of 10 to 100 nM. The IC50 ([10]; KRAS G13D FRET data IC50, KRAS G13D) was 100 to 1000 nM, the IC50 [11] was 100 to 1000 nM and the IC50 [12] was 100 to 1000 nM. For the same compound, the IC50 [13] was 100 to 1000 nM and the IC50 [14] was 100 to 1000 nM.
